Results: paper PMC4161390, “Design and Synthesis of a Cell-Permeable, Drug-Like Small Molecule Inhibitor Targeting the Polo-Box Domain of Polo-Like Kinase 1” (PLoS ONE, 2014)

Target: T1, Polo-like kinase 1 polo-box domain (Plk1-PBD) (Homo sapiens, UniProt P53350)
T1 construct: HA-EGFP-Plk1 in mitotic 293A lysates
Assay: ELISA-based Plk1 PBD competition assay (moderate activity)
Type: biochemical

T1 sequence (P53350 whole entry, the tested form may be a part): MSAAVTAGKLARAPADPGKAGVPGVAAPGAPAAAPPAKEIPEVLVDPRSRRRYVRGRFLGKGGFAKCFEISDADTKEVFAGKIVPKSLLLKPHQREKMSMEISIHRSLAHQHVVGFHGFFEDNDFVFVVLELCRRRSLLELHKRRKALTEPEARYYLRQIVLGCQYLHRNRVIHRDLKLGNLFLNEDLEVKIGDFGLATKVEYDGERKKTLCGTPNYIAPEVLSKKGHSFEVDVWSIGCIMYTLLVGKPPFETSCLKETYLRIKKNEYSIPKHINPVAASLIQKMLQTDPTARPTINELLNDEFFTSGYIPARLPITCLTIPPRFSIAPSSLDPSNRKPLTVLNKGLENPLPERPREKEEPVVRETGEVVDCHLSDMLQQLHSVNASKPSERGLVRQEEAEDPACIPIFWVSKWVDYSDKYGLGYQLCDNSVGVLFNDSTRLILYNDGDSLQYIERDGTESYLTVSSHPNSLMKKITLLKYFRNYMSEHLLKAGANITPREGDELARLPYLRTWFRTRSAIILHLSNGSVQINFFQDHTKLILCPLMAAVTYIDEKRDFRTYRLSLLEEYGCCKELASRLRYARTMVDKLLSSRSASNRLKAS

O=c1c(O)cccc2cc(O)c(O)c(O)c12 [PPG, purpurogallin]
ELISA-based Plk1 PBD competition assay (moderate activity): PPG PLS5 Bg-5 Bg-6|moderate weak weak weak|
